Where two headings read alike, the source gives them in different places.
Key:
[1] = molecular target: IRAK4 (Homo sapiens (Human), UniProt Q9NWZ3); experiment: IRAK4 Inhibition Assay; format: biochemical; details: ATP 500 μM; IRAK4 0.6 nM; 60 min at room temperature
Experimental: The assays were performed in U-bottom 384-well plates. […] The reaction was initiated by the combination of IRAK4 with substrates and test compounds. The reaction was incubated at room temperature for 60 min. and terminated by adding 45 μL of 35 mM EDTA to each sample. The reaction mixture was analyzed on the Caliper LABCHIP® 3000 (Caliper, Hopkinton, Mass.) by electrophoretic separation of the fluorescent substrate and phosphorylated product.

[2] = tested on: TLR2 induced IL-6 in peripheral blood mononuclear cells (PBMCs); experiment: PBMC TLR2 Induced IL-6 Assay; format: cell-based, human; details: human PBMCs, 10 μg/ml lipoteichoic acid for 5 hours, IL-6 by ELISA; for EC50: EC50 determinations are indicated with an asterisk, read-out: Cell EC50 (asterisk); for IC50: value without asterisk, read-out: Cell IC50
Procedure, shortened: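 IL-6 ELISA of supernatants after a 5 h challenge with the TLR2 agonist lipoteichoic acid (10 μg/ml). Before stimulation, human PBMCs (250000 cells/well; RPMI, 10% heat-inactivated FCS) received compound for 30 min at 37° C. Values given as IC50 or EC50.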

Sequence of IRAK4 (Q9NWZ3 whole entry, species assumed): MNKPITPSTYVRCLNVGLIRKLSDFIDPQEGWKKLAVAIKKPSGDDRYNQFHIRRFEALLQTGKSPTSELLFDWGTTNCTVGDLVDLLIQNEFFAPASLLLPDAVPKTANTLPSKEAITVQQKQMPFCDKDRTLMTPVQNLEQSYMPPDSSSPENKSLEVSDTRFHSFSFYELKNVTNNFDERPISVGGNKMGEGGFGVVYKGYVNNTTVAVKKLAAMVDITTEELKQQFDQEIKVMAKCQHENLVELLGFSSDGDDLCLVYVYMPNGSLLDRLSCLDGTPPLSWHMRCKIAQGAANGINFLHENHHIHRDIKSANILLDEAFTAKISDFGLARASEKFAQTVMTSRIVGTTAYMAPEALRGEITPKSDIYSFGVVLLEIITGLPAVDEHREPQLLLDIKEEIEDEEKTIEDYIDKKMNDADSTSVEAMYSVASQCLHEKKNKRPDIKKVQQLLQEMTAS

SMILES	IC50 [1]	EC50 ([2]; Homo sapiens, PBMC, 5 h)	EC50 [2]	IC50 ([2]; Homo sapiens, PBMC, 5 h)	IC50 [2]
CC(C)(O)C1CCC(NC(=O)c2cnc(Nc3ccc4ncsc4c3)cc2NC2CCCOC2)CC1 (stereo not drawn) [Example 490]	4.2 nM	277 nM			
CC(C)(O)C1CCC(NC(=O)c2cnc(Nc3ccc4ncsc4c3)cc2NC2CCCOC2)CC1 (stereo not drawn) [Example 491]	5 nM		281 nM		
CCNc1cc(Nc2nc3ccnn3cc2F)ncc1C(=O)NC1CCC(C(C)(C)O)CC1 (stereo not drawn) [Example 492]	12.1 nM	454 nM			
CC(C)(O)C(F)(F)CNC(=O)c1cnc(Nc2nc3scnc3cc2F)cc1NC1CC1 [Example 493]	4.3 nM	365 nM			
CC(C)Nc1cc(Nc2ccc3ncsc3c2)ncc1C(=O)NC1CCc2[nH]ncc2C1 (stereo not drawn) [Example 494]	8.5 nM	209 nM			
CC(C)(O)[C@H](F)CNC(=O)c1cnc(Nc2ncc3ccc(F)cc3n2)cc1NC1CCOCC1 [Example 495]	11.9 nM	447 nM			
CC(C)(O)[C@H](F)CNC(=O)c1cnc(Nc2nc3ccnn3cc2F)cc1NC1CCCCC1(F)F (stereo partly drawn) [Example 496]	6.4 nM		91 nM		
CC(C)(O)[C@H](F)CNC(=O)c1cnc(Nc2nc3ccnn3cc2F)cc1NC1CCCCC1(F)F (stereo partly drawn) [Example 497]	15.2 nM		299 nM		
CC(C)(O)[C@H](F)CNC(=O)c1cnc(Nc2cc3nccnc3cc2F)cc1NC1CCC1 [Example 500]	5.4 nM	228 nM			
CC(C)Nc1cc(Nc2cc3nccnc3cc2F)ncc1C(=O)NC[C@@H](F)C(C)(C)O [Example 501]	4.5 nM	209 nM			
CC(CCF)Nc1cc(Nc2nc3ccnn3cc2F)ncc1C(=O)NC[C@@H](F)C(C)(C)O (stereo partly drawn) [Example 502]	4.8 nM	144 nM			
CNC(=O)[C@H]1CC[C@H](NC(=O)c2cnc(Nc3ccc4ncsc4c3)cc2NC2CCC2)CC1 [Example 504]	4.7 nM			496 nM	
CNC(=O)[C@H]1CC[C@H](NC(=O)c2cnc(Nc3ccc4ncsc4c3)cc2NCC(F)(F)F)CC1 [Example 506]	6.5 nM			320 nM	
CNC(=O)[C@H]1CC[C@H](NC(=O)c2cnc(Nc3cnc4[nH]ccc4c3)cc2NC(C)C)CC1 [Example 507]	12 nM			523 nM	
CNC(=O)[C@H]1CC[C@H](NC(=O)c2cnc(Nc3nc4ccnn4cc3F)cc2NC2CC2)CC1 [Example 508]	10.2 nM			10000 nM	
CNC(=O)[C@H]1CC[C@H](NC(=O)c2cnc(Nc3nc4ccnn4cc3F)cc2NC2CCOCC2)CC1 [Example 509]	9.5 nM			1200 nM	
CNC(=O)[C@H]1CC[C@H](NC(=O)c2cnc(Nc3ccc4ncsc4n3)cc2NC2CCOCC2)CC1 [Example 510]	1.5 nM	28 nM			

SMILES	IC50 [1]	EC50 ([2]; Homo sapiens, PBMC, 5 h)	EC50 [2]	IC50 ([2]; Homo sapiens, PBMC, 5 h)	IC50 [2]
CC(=O)N[C@H]1CC[C@H](NC(=O)c2cnc(Nc3ccc4ncsc4c3)cc2N[C@H]2CCOC[C@@H]2F)CC1 [Example 511]	4.2 nM			611 nM	
CC(=O)N[C@H]1CC[C@H](NC(=O)c2cnc(Nc3nc4ccnn4cc3F)cc2NC(C)C)CC1 [Example 512]	17.4 nM			602 nM	
CC(=O)N[C@H]1CC[C@H](NC(=O)c2cnc(Nc3nc4ccnn4cc3F)cc2NC2CCOCC2)CC1 [Example 513]	9.4 nM			1570 nM	
CC(=O)N[C@H]1CC[C@H](NC(=O)c2cnc(Nc3ccc4ncsc4n3)cc2NC2CCOCC2)CC1 [Example 514]	1.8 nM	26 nM			
CC(C)(O)[C@H](F)CNC(=O)c1cnc(Nc2cc3scnc3cc2F)cc1NCC(F)(F)F [Example 515]	3.4 nM			450 nM	
CCNc1cc(Nc2cc3scnc3cc2F)ncc1C(=O)NC[C@@H](F)C(C)(C)O [Example 516]	3.1 nM			1200 nM	
CC(C)(O)[C@H](F)CNC(=O)c1cnc(Nc2cc3scnc3cc2F)cc1NC1CCCOC1 (stereo partly drawn) [Example 517]	6 nM			1290 nM	
CC(C)(O)[C@H](F)CNC(=O)c1cnc(Nc2cc3scnc3cc2F)cc1NC1CCCOC1 (stereo partly drawn) [Example 518]	3.8 nM				1840 nM
CC(C)(O)[C@H](F)CNC(=O)c1cnc(Nc2nc3scnc3cc2F)cc1NCC(F)(F)F [Example 519]	2.2 nM			634 nM	
CC(C)(O)[C@H](F)CNC(=O)c1cnc(Nc2cc3scnc3cc2F)cc1NC1CCOCC1 [Example 520]	2.5 nM			1060 nM	
CC(C)Nc1cc(Nc2ccc3ncsc3c2)ncc1C(=O)NC1CCc2nc(N)sc2C1 (stereo not drawn) [Example 521]	8.5 nM			2330 nM	
CC(C)Nc1cc(Nc2ccc3ncsc3c2)ncc1C(=O)N[C@H]1CC[C@H]([N+](=O)[O-])CC1 [Example 523, 6-(benzo[d]thiazol-6-ylamino)-4-(isopropylamino)-N-((trans)-4-nitrocyclohexyl)nicotinamide]	5.4 nM	365 nM			
CC(C)Nc1cc(Nc2ccc3ncsc3c2)ncc1C(=O)NC1CCC(O)(c2ccnn2C)CC1 (stereo not drawn) [Example 524]	3.7 nM	75 nM			
CC(C)Nc1cc(Nc2ccc3ncsc3c2)ncc1C(=O)NC1CCC2(CC1)NC(=O)NC2=O (stereo not drawn) [Example 525, 6-(benzo[d]thiazol-6-ylamino)-N-(2,4-dioxo-1,3-diazaspiro[4.5]decan-8-yl)-4-(isopropylamino)nicotinamide]	1.5 nM	131 nM			
CC(C)Nc1cc(Nc2ccc3ncsc3c2)ncc1C(=O)NC1CCC(=O)CC1 [Example 526, 6-(benzo[d]thiazol-6-ylamino)-4-(isopropylamino)-N-(4-oxocyclohexyl)nicotinamide]	6.6 nM	423 nM			
CC(C)Nc1cc(Nc2ccc3ncsc3c2)ncc1C(=O)NC1CCc2nnnn2CC1 (stereo not drawn) [Example 527, 6-(benzo[d]thiazol-6-ylamino)-4-(isopropylamino)-N-(6,7,8,9-tetrahydro-5H-tetrazolo[1,5-a]azepin-7-yl)nicotinamide]	7.7 nM	320 nM			

Source: patent US9546153B2, “Bicyclic heterocycle substituted pyridyl compounds useful as kinase modulators” (BRISTOL-MYERS SQUIBB COMPANY, priority 2012, dated 2017)
